Patent publication US20220002288A1, “MONOBACTAM COMPOUNDS AND USE THEREFOR” (priority 2018, published 2022)
In brackets after ≈: the same amount, converted by molar mass. Where a name gives a salt, the structure may show the parent alone. Read-outs that look alike come from different tables or passages of the source.

How the values were obtained:
Pseudomonas aeruginosa = assay: In vitro antibacterial activity, minimum inhibitory concentration (MIC); format: cell-based
Method: (§1) Compounds: The compounds prepared in the above examples and comparative examples. All test compounds were dissolved and diluted with DMSO, and the final concentrations were prepared as 64, 32, 16, 8, 4, 2, 1, 0.5, 0.25, 0.125, 0.0625 μg/mL in the experiment.
(§2) Bacterial strains: 6 strains of Acinetobacter baumannii (codenames: HDBAB-YK4, HDBAB-YK7, HDBAB-YK12, HDBAB-YK16, HDBAB_OXA_7, ATCC 19606), 2 strains of Pseudomonas aeruginosa (codenames: HDBPA-YK9, HDBPA)-YK15), 1 strain of Escherichia coli (codename: CLB30048), all provided by HD Biosciences (Shanghai) Co., Ltd.
(§3) Medium: Trypticase soy agar (TSA) (BD BBL 211043), and Cation-adjusted Mueller Hinton broth (CAMHB) (BD BBL212322).
(§4) The bacteria used for the minimum inhibitory concentration (MIC) test were stored frozen at −80° C., and needed 2 days to recover before use. A small amount of frozen bacteria was scraped with a sterile inoculation loop for streak inoculation on a TSA solid medium petri dish. The dish was placed in an ordinary incubator at 35±2° C. for 20-24 hours. 5-10 Colonies with similar morphologies were picked from the above-mentioned petri dish with a sterile inoculating loop for streak inoculation again on a TSA solid medium petri dish. The dish was then placed in an ordinary incubator at 35±2° C. for 20-24 hours.
(§5) 1.02×CAMHB liquid medium was taken out from a 4° C. refrigerator and placed at room temperature for preheating. 5-10 Individual bacterial colonies were picked from the solid petri dish of the above Section 2.1 and re-suspended in 500 μL of 0.9% NaCl, and then the OD600 was adjusted to 0.1-0.15 with a spectrophotometer. Then the bacteria were diluted 400 times with 1.02×CAMHB (two-step dilution method: firstly diluting 10 times, then diluting 40 times).
(§6) The number of inoculated bacteria can be obtained by counting the colonies on the petri dish (see Section 2.4).
(§7) One compound was arranged in each row of a 96-well test plate: the highest test concentration for each compound was 64 μg/mL, which was diluted by a factor of two.
(§8) Growth control (GC): 1.02×CAMHB and dimethyl sulfoxide (DMSO) containing bacterial inoculum, no compound.
(§9) Sterile control (SC): Containing 1.02×CAMHB and DMSO, no compound.
(§10) All test compounds were dissolved and diluted with DMSO. 50 μL of 3.2 mg/mL of each test compound was transferred to the initial well (A1-H1) of the dilution plate, and then 25 μL of DMSO was transferred to other wells. The test compounds were sequentially diluted by a factor of 2 from column 1 to column 11 (i.e. drawing 25 μL of test compound from column 1 to column 2 and mixing well, and then drawing 25 μL of test compound from column 2 to column 3 and mixing well, and then drawing 25 μL of test compound from column 3 to column 4 and mixing well, and so on, until diluting to column 11).
(§11) 2 μL of the compound was transferred from the compound plate to the corresponding well of the test plate. Meanwhile, 2 μL of 100% DMSO was transferred to the compound-free wells (the GC and SC wells).
(§12) 98 μL of the corresponding bacterial inoculum was added to the test plate (except for the SC well).
(§13) 98 μL of 1.02×CAMHB medium was added to the SC well of the test plate.
(§14) After the system was added, the test plate was covered with a sterile lid, centrifuged at 800 rpm for 30 seconds, then shaken on a plate shaker at 400 rpm for 1 minute for mixing well, and then placed in an incubator at 35±2° C. for 20 hours.
(§15) The inoculated bacteria were gradient diluted by 10 folds with the liquid medium, from 10^−1 to 10^−3. 100 μL of the above bacterial dilution was spread evenly on a TSA petri dish, 2 replicates for each dilution. After the medium was absorbed by TSA for 10 minutes, the petri dishes were reversed and incubated in an incubator at 35±2° C. for 24 hours.
(§16) A compound management system was turned on to check whether the barcode and compound arrangement of each test plate were correct. […]

Escherichia coli = assay: as above; format: cell-based; conditions: strain CLB30048, read-out: MIC
Method: as §1, §2, §3, §4, §5, §6, §7, §8, §9, §10, §11, §12, §13, §14, §15, §16

Acinetobacter baumannii = assay: as above; format: cell-based
Method: as §1, §2, §3, §4, §5, §6, §7, §8, §9, §10, §11, §12, §13, §14, §15, §16

[1] = test system: Acinetobacter baumannii, Pseudomonas aeruginosa, and Escherichia coli; assay: In vitro antibacterial activity, summary statements over all strains of Experimental Example 1; format: cell-based; conditions: method of Experimental Example 1
Method: as §1, §2
The minimum inhibitory concentration (MIC) of each compound was recorded according to the guidelines of the Clinical and Laboratory Standards Institute.

[2] = Pharmacokinetics of the compounds in mice; format: in vivo, BALB/c mice; conditions: mouse, plasma, male BALB/c mice, single intravenous dose 2 mg/kg, plasma; for Vd: male, BALB/c, iv, 2 mg/kg
Excerpt: Animals: male BALB/c mice, SPF grade, purchased from Changzhou Cavens Experimental Animal Co., Ltd.; 16-24 g, license number: SCXK (Su)2016-0010; 2 to 3 days of adaptation period were given before the experiment.
Instruments: API 4500 High Performance Liquid Chromatograph Coupled Triple Quadrupole Mass Spectrometer, and Analyst QS A01.01 Chromatography Workstation were both purchased from AB SCIEX of the United States; Milli-Q ultrapure water device was purchased from Millipore; CF16R XII desktop high-speed refrigerated centrifuge was purchased From Hitachi Company; Qilinbeier Vortex-5 oscillator was purchased from IKA Company of German; electric heating constant-temperature water bath was purchased from Changzhou Guohua Electric Appliance Co., Ltd.; electric pipette was purchased from Thermo Company of American; and microanalysis balance was purchased from Shanghai Mettler Co., Ltd.
2 mg of the test compound was weighed, added to physiological saline, vortexed for 2 min, and ultrasonicated for 3 min, to prepare a test solution with a concentration of 0.2 mg/mL for intravenous administration.
A single dose of 2 mg/kg of the test compound was administered to BALB/c mice via the tail vein, the dose volume being 0.1 mL/10 g. At 5 min, 15 min, 30 min, 1 h, 2 h, 4 h after administration, blood samples were collected from the orbital venous plexus into heparinized EP tubes (0.6 mL), which were temporarily placed on crushed ice.
The samples were centrifuged at 8000 rpm for 5 min. 15 μL of upper plasma were transferred to a 96-well plate. 150 μL of methanol:acetonitrile (v/v=1:1) (containing 20 ng/mL tolbutamide) was added to 15 μL of plasma, shaken for 3 min, and centrifuged at 4500 rpm for 5 min. 100 μL of supernatant was taken to a 2 mL deep well plate. 100 μL of diluent (pure water) was added. The samples were shaken for 3 min, and centrifuged at 4500 rpm for 5 min. 180 μL of the supernatant was transferred to the sample plate. The content of the compound in the supernatant sample was analyzed by LC-MS/MS, and various pharmacokinetic parameters were calculated with WinNonlin software.

**Q.** For CC1(C)[C@H](NC(=O)/C(=N\O[C@@H](COc2ccc(-c3cn4[n+](c3)CC(OCCCN)C4)cc2)C(=O)O)c2csc(N)n2)C(=O)N1OS(=O)(=O)[O-] (stereo partly drawn) [Example 3, (3S)-3-((Z)-2-(((1S)-2-(4-(2-(3-aminopropoxy)-2,3-dihydro-1H-pyrazolo[1,2-a]pyrazol-4-ium-6-yl)phenoxy)-1-carboxyethoxy)imino)-2-(2-aminothiazol-4-yl)acetylamino)-2,2-dimethyl-4-oxoazetidin-1-yl Sulfate], which MIC (Pseudomonas aeruginosa; strain HDBPA-YK9) is on record?
**A.** Its MIC is 16 µg/mL.

**Q.** And the MIC (Pseudomonas aeruginosa; strain HDBPA-YK15)?
**A.** Its MIC is over 64 µg/mL.

**Q.** And the MIC (Escherichia coli)?
**A.** The MIC was 4 µg/mL.

**Q.** And the MIC (Acinetobacter baumannii; ATCC19606, strain ATCC 19606)?
**A.** The MIC was 2 µg/mL.

**Q.** What about the MIC (Acinetobacter baumannii; strain HDBAB-YK4) of the same compound?
**A.** Its MIC is 2 µg/mL.

**Q.** And the MIC (Acinetobacter baumannii; strain HDBAB-YK7)?
**A.** The MIC was 2 µg/mL.

**Q.** And the MIC (Acinetobacter baumannii; strain HDBAB-YK12)?
**A.** Its MIC is 2 µg/mL.

**Q.** What about the MIC (Acinetobacter baumannii; strain HDBAB-YK16) of the same compound?
**A.** The MIC was 16 µg/mL.

**Q.** And the MIC (Acinetobacter baumannii; strain HDBAB_OXA_7)?
**A.** Its MIC is 8 µg/mL.

**Q.** And the “in vitro antibacterial activity (in words)” value [1]?
**A.** The value was “excellent antibacterial activity”.

**Q.** What about the Vd ([2]; read-out: VSS) of the same compound?
**A.** Its Vd is 0.26 L/kg.

**Q.** And the Vd ([2]; read-out: Vd)?
**A.** The Vd was 0.35 L/kg.

**Q.** What about the AUC(0-inf) [2] of the same compound?
**A.** Its AUC(0-inf) is 2310 ng·h/mL.

**Q.** What about the AUC(0-t) [2] of the same compound?
**A.** Its AUC(0-t) is 2300 ng·h/mL.

**Q.** What about the C0 [2] of the same compound?
**A.** Its C0 is 8650 ng/mL.

**Q.** And the clearance [2]?
**A.** The clearance was 14.5 mL/min/kg.

**Q.** And the half-life [2]?
**A.** The half-life was 16.8 min.

**Q.** For C[n+]1cc(-c2ccc(OC[C@H](O/N=C(\C(=O)N[C@@H]3C(=O)N(OS(=O)(=O)[O-])C3(C)C)c3csc(N)n3)C(=O)O)cc2)ccc1NC(=O)[C@@H](N)CCN [Example 9], which MIC (Pseudomonas aeruginosa; strain HDBPA-YK9) is on record?
**A.** Its MIC is 8 µg/mL (≈ 10.7 µM).

**Q.** What about the MIC (Pseudomonas aeruginosa; strain HDBPA-YK15) of the same compound?
**A.** Its MIC is over 64 µg/mL.

**Q.** And the MIC (Escherichia coli)?
**A.** Its MIC is 2 µg/mL (≈ 2.67 µM).

**Q.** What about the MIC (Acinetobacter baumannii; ATCC19606, strain ATCC 19606) of the same compound?
**A.** The MIC was 2 µg/mL (≈ 2.67 µM).

**Q.** What about the MIC (Acinetobacter baumannii; strain HDBAB-YK4) of the same compound?
**A.** Its MIC is 2 µg/mL (≈ 2.67 µM).

**Q.** And the MIC (Acinetobacter baumannii; strain HDBAB-YK7)?
**A.** Its MIC is 0.25 µg/mL (≈ 0.333 µM).

**Q.** And the MIC (Acinetobacter baumannii; strain HDBAB-YK12)?
**A.** The MIC was 1 µg/mL (≈ 1.33 µM).

**Q.** And the MIC (Acinetobacter baumannii; strain HDBAB-YK16)?
**A.** Its MIC is 8 µg/mL (≈ 10.7 µM).

**Q.** What about the MIC (Acinetobacter baumannii; strain HDBAB_OXA_7) of the same compound?
**A.** The MIC was 8 µg/mL (≈ 10.7 µM).

**Q.** And the “in vitro antibacterial activity (in words)” value [1]?
**A.** The value was “excellent antibacterial activity”.
